Data on three molecules can be found in US6921766B1, “Blood vessel lipid deposition-preventive agent comprising chymase-inhibitor” (Daiichi Suntory Pharma Co., Ltd., priority 1999, dated 2005).

One data set addresses T1, Human heart chymase (Homo sapiens, UniProt P23946).
T1 construct: Human heart chymase was purified according to the method of Urata et al; from tissue; host or cells: human heart
T1 sequence (P23946 22-247): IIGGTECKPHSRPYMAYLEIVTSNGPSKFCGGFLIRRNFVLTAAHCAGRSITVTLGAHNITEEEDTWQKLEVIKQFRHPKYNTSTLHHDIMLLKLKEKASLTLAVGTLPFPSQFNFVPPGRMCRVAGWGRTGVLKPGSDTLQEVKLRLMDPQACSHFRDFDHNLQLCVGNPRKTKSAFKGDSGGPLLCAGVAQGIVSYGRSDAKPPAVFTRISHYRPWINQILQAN
Put plainly: Inhibitory activity of test compounds to human chymase (Suc-Ala-Ala-Pro-Phe-MCA substrate). It counts as biochemical. Conditions: purified human heart chymase, preincubated 10 min at 30° C., pH 7.5. How it is done: Human heart chymase was purified according to the method of Urata et al. (J. Biol. Chem. 265: 22348, 1990). The inhibitory activity of the compound of the present invention was determined as follows. Purified enzyme was diluted with 0.1 M Tris-HCl buffer (pH 7.5) containing 1 M sodium chloride and 0.01% Triton X-100 to appropriate concentrations. Suc-Ala-Ala-Pro-Phe-MCA (Peptide Institute Inc.) was dissolved in 10 mM dimethyl sulfoxide (hereinafter referred to as DMSO) and diluted 20-fold with 0.1 M Tris-HCl buffer (pH 7.5) containing 1 M sodium chloride and 0.01% Triton X-100 to an appropriate concentration to prepare substrate solution.
5 μl of the test sample in DMSO was added to 75 μl of the enzyme solution and preincubated at 30° C. for 10 minutes. Then, 20 μl of the substrate solution was added to the test sample-enzyme mixture, and incubated at 30° C. Ten minutes later, 50 μl of 30% acetic acid was added to stop the enzymatic reaction, and the amount of AMC formed was determined using a fluorophotometer. At the same time, 5 μl of DMSO in stead of the test sample was added and reacted simultaneously as a control. The inhibitory activity to human chymase was calculated based on the value of the control, and then the inhibition percentage and the 50% inhibition concentration (IC50) were determined.

The conditions of data set [1]: human, pH 7.2.
Experimental: 2 μl of 1 mM test sample in DMSO was added to 198 μl of 50% of human plasma solution in a 50 mM sodium phosphate buffer (pH 7.2) and incubated at 30° C. At 0, 5, and 15 minutes, 800 μl of acetonitrile was added to the test sample-plasma mixture, which was mixed and deproteinized. The supernatant obtained by centrifugation (12,000 rpm, one minute) was diluted with the same volume of distilled water, and the intact compound in the solution was determined by HPLC analysis.
The half life (t1/2) of the test sample in the plasma solution was calculated from the recovery at each time point using an exponential regression analysis.
The test system of data set [2] is lipid deposition in the aorta. The data set can be described thus: Aortic lipid deposition model in hamster induced by high-cholesterol diet. It counts as in vivo, Golden Syrian hamsters. Conditions: 100 mg/kg/day orally for 12 weeks. How it is done: An aorta lipid deposition model was induced by a high-cholesterol diet. A high-cholesterol diet was prepared by adding 0.5% cholesterol and 10% coconut oil (KBT Oriental Co.) to a standard rodent feed containing 5.1% fat and 0.07% cholesterol (KBT oriental Co.). 8-week-old male Golden Syrian hamsters (KBT Oriental Co.) (100-130 g) were given the high-cholesterol diet for 12 weeks to induce lipid deposition in the aorta. A group to which a standard rodent feed was given for 12 weeks was used as the control.
An aortic lipid deposition model was generated as described in Example 3 and used as the high-cholesterol diet group (n=6). A group that received the standard rodent diet for 12 weeks was used as the control group (n=6). […]
The effect on lipid deposition by the chymase no inhibitor was evaluated by harvesting the aorta on week 12 after the start of the high-cholesterol diet and performing a histopathological analysis. […]
Then, the sections were washed with 60% isopropanol and distilled water, and counterstained with hematoxylin for 2 minutes. After washing with 1/4 saturated LiCO3, lipid deposition was evaluated by microscopic observation. Also, the area of the lipid deposition region (the region stained to an orange color with Oil red O) was quantitated on the histological pictures by NIH Image software ver. […]

SMILES strings stand for the structures. Entries after “also recorded” stand apart in the source; their conditions may differ.

Take `CC(C(=O)O)C(=O)Nc1cccc(S(=O)(=O)n2c(=O)[nH]c3cc(Cl)ccc3c2=O)c1` (centres unmarked) [Compound 13, 2-{3-[(7-chloro-2,4(1H,3H)-quinazolinedione-3-yl)sulfonyl]phenylaminocarbonyl}propionic acid]: on Human heart chymase, half-maximal inhibition (IC50) required 0.3 µM. Moreover, in data set [1], the “t1/2 (plasma half life)” value was 1.62 h.
Consider `Nc1cc(S(=O)(=O)n2c(=O)[nH]c3cc(Cl)ccc3c2=O)ccc1C(=O)[O-].[Na+]` [Compound 18, 4-[(7-chloro-2,4(1H,3H)-quinazolinedione-3-yl)sulfonyl]anthranilic acid monosodium salt], for which, in data set [2] (FIG. 1, monosodium salt, 100 mg/kg/day), the “lipid deposition area in the aortic cusp region” value is listed as “decreased; also recorded: significantly suppressed”. In data set [2] (Oil red O staining), the “lipid deposition in the aorta (microscopic examination of the aortic cusp)” value was “completely disappeared”.
Molecule `O=C(O)C1Oc2ccc(S(=O)(=O)n3c(=O)[nH]c4cc(Cl)ccc4c3=O)cc2NC1=O` (racemic) [Compound 29, (±)-6-[(7-chloro-2,4(1H,3H)-quinazolinedione-3-yl)sulfonyl]-3-oxo-1,4-benzoxadine-2-carboxylic acid] showed an IC50 against Human heart chymase of 1.7 µM.

As a reminder, the IC50 is the concentration needed to halve the response being measured.
